Reference: article PMC7794297

Columns and labels:
[1] = NADPH-templated DCL of building blocks 1-4;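 note: values are means ± SD of DCC experiments run in triplicate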
[2] = Solubility under DCL conditions; format: physicochemical; conditions: aqueous buffer; basic pH and 2.5% (v/v) DMSO
From the text: reaction of compound 3 to (3)2 in the presence of selenocystine and DMSO. The accelerating role of DMSO wa s disca rded by running control experim ents containing up to 20% (v/v) DMSO, which is much larger than the amount of this co-solvent used in our standard conditions (2.5% (v/v) DMSO).
1) All the amino acids shown in Figure 3 have D-stereochemistry. I guess this is an error, please amend that. The same issue states for the structures in Figure 1.
Thank you. It has been corrected.
2) For every mention to % of a reagent, especially in the methods part, it should be clearly stated if this is volume, weight of molar percent, and with respect to what.
Thank you. It has been included.
3) Some of the disulfides formed in the libraries (i.e. (4)2) are expected to be poorly soluble in buffered water. […] When quantifying species in a mixture, solubility problems must be carefully […]
1.The main problem of the MS is that the authors only describe the rate enhancement by comparing if the reactions have reached equilibrium after 24 h or 96 h, as characterised by HPLC. It is shown for different ratios of the catalyst, but it doesn’t provide any quantitative measure of the rate acceleration. […] The authors should provide quantitative characterisation of the rate constants, starting with a simple homodimerisation of thiols, as it is done in ref. 15. […]

[3] = target: bovine serum albumin (BSA) (Bos taurus, UniProt P02769); assay: BSA-directed DCL of building blocks 1-4; design: purchased Roche; key to NC of RPA: normalized change of relative peak area (RPA) vs blank DCL
Sequence of bovine serum albumin (BSA) (P02769 25-607): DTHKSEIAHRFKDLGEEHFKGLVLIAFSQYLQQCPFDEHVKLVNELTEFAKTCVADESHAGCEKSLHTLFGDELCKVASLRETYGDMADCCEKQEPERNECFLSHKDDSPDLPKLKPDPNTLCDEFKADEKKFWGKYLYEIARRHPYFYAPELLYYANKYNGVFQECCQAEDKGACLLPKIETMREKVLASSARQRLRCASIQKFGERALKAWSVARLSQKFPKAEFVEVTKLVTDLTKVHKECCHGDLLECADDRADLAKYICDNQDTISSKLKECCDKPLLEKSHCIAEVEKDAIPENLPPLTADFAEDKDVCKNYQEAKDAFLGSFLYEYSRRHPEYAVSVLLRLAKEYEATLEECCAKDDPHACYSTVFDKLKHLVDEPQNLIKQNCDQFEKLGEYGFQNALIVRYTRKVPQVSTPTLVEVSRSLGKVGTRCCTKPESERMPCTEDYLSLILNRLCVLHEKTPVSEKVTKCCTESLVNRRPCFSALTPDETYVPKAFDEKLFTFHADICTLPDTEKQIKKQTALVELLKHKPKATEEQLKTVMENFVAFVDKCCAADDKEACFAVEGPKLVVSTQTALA

c1ccc(SSc2ccccc2)cc1 [(4)2]
Normalized Change of RPA (NC) ([1]; 0% Secox): -1,00 | Normalized Change of RPA (NC) ([1]; 5% Secox): -1,00 | solubility [2]: ≤ 2000 µM | amplification in the BSA-templated DCL ([3]; GOx replaced by BSA): did not amplify | NC of RPA ([3]; blank vs BSA-DCL, BSA 57 µM, Secox 5% mol, 24 h): 0,02
